The source of these data is PMC3356977, “Chemical Inhibition of Bacterial Protein Tyrosine Phosphatase Suppresses Capsule Production” (PLoS ONE, 2012).

SMILES strings stand for the structures.

In this assay the target is T1, CpsB (Streptococcus pneumoniae, UniProt Q9AHD4).
T1 construct: His6CpsB
The assay can be described thus: inhibition of pNPP dephosphorylation by purified His6CpsB (A410). The assay is classed as biochemical.

T1 sequence (Q9AHD4 whole entry, looked up): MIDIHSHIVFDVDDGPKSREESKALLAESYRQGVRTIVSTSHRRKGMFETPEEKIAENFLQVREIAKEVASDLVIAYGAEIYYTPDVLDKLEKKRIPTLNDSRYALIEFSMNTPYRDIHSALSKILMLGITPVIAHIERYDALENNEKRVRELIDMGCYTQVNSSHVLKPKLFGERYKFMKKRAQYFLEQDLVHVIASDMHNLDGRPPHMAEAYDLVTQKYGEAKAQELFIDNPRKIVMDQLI

Take `CC(C)=CCC/C(C)=C/CC/C(C)=C/CC/C(C)=C/Cc1cc(OS(=O)(=O)O)ccc1O` [FQE, fascioquinol E]: the IC50 stood at 5.21 µM.
